Measurements as given in the OligoGym collection.
HELM strings list units from the 5' end as sugar, base in round brackets, then linkage (d deoxyribose, r ribose, m 2'-O-methyl, p phosphodiester). Strings are as the collection lists them; they lack the last nucleoside at the 3' end of the tested compound. [moe] = 2'-O-(2-methoxyethyl) (MOE); [sp] = phosphorothioate linkage; [m5C] = 5-methylcytosine

Molecular target: UBE3A-ATS
Test: mouse, dose not given
Conditions: ASO

Substance	3 h FOB score [score 0-7]
RNA1{[moe](T)[sp].[moe](T)p.[moe](G)p.[moe](T)p.[moe](A)p.d(G)[sp].d([m5C])[sp].d(T)[sp].d(A)[sp].d(T)[sp].d(A)[sp].d(G)[sp].d(G)[sp].d(T)[sp].d(G)[sp].[moe](T)p.[moe]([m5C])p.[moe](A)[sp].[moe]([m5C])}$$$$ (last 3' nucleoside missing)	4
RNA1{[moe](T)[sp].[moe](T)p.[moe](G)p.[moe]([m5C])p.[moe](T)p.[moe](G)p.d(A)[sp].d(T)[sp].d([m5C])[sp].d(A)[sp].d([m5C])[sp].d(A)[sp].d(T)[sp].d(T)[sp].d(A)[sp].d([m5C])[sp].[moe]([m5C])p.[moe]([m5C])[sp].[moe](A)}$$$$ (last 3' nucleoside missing)	1
RNA1{[moe](T)[sp].[moe](T)p.[moe](G)p.[moe]([m5C])p.[moe](T)p.d(G)[sp].d(A)[sp].d(T)[sp].d([m5C])[sp].d(A)[sp].d([m5C])[sp].d(A)[sp].d(T)[sp].d(T)[sp].d(A)[sp].[moe]([m5C])p.[moe]([m5C])p.[moe]([m5C])[sp].[moe](A)}$$$$ (last 3' nucleoside missing)	0
RNA1{[moe](T)[sp].[moe](T)p.[moe](G)p.[moe]([m5C])p.d(T)[sp].d(G)[sp].d(A)[sp].d(T)[sp].d([m5C])[sp].d(A)[sp].d([m5C])[sp].d(A)[sp].d(T)[sp].d(T)[sp].[moe](A)p.[moe]([m5C])p.[moe]([m5C])p.[moe]([m5C])[sp].[moe](A)}$$$$ (last 3' nucleoside missing)	0
RNA1{[moe](T)[sp].[moe](T)p.[moe](T)p.[moe](A)p.[moe](G)p.d(G)[sp].d(T)[sp].d([m5C])[sp].d(A)[sp].d(A)[sp].d([m5C])[sp].d([m5C])[sp].d(A)[sp].d(A)[sp].d(T)[sp].[moe](T)p.[moe](T)p.[moe](G)[sp].[moe]([m5C])}$$$$ (last 3' nucleoside missing)	0
RNA1{[moe](T)[sp].[moe](T)p.[moe](T)p.[moe](A)p.[moe](T)p.d(A)[sp].d(G)[sp].d(G)[sp].d(G)[sp].d(T)[sp].d(G)[sp].d(G)[sp].d(T)[sp].d(T)[sp].d(G)[sp].[moe](G)p.[moe](T)p.[moe](T)[sp].[moe]([m5C])}$$$$ (last 3' nucleoside missing)	6
RNA1{[moe](T)[sp].[moe](T)p.[moe](T)p.[moe](A)p.[moe](T)p.d(A)[sp].d([m5C])[sp].d(T)[sp].d(T)[sp].d(T)[sp].d(A)[sp].d([m5C])[sp].d([m5C])[sp].d([m5C])[sp].d(A)[sp].[moe](A)p.[moe]([m5C])p.[moe](T)[sp].[moe](T)}$$$$ (last 3' nucleoside missing)	0
RNA1{[moe](T)[sp].[moe](T)p.[moe](T)p.[moe](A)p.[moe](T)p.d(T)[sp].d(G)[sp].d(G)[sp].d(T)[sp].d([m5C])[sp].d(A)[sp].d(T)[sp].d([m5C])[sp].d(T)[sp].d([m5C])[sp].[moe](G)p.[moe](G)p.[moe](G)[sp].[moe](T)}$$$$ (last 3' nucleoside missing)	3.7
RNA1{[moe](T)[sp].[moe](T)p.[moe](T)p.[moe](G)p.[moe](G)p.d(T)[sp].d(A)[sp].d(T)[sp].d(T)[sp].d(G)[sp].d(A)[sp].d([m5C])[sp].d(A)[sp].d([m5C])[sp].d([m5C])[sp].[moe](T)p.[moe]([m5C])p.[moe]([m5C])[sp].[moe](A)}$$$$ (last 3' nucleoside missing)	3.7
RNA1{[moe](T)[sp].[moe](T)p.[moe](T)p.[moe](G)p.[moe](G)p.d([m5C])[sp].d(T)[sp].d(T)[sp].d(T)[sp].d(A)[sp].d(T)[sp].d(A)[sp].d([m5C])[sp].d(T)[sp].d(T)[sp].[moe](T)p.[moe](A)p.[moe]([m5C])[sp].[moe]([m5C])}$$$$ (last 3' nucleoside missing)	0
